In patent US20230348459A1, “PYRROLIDINE COMPOUND AND USE THEREOF” (SIMCERE PHARMACEUTICAL CO., LTD., priority 2020, published 2023):
Converted amounts (≈) assume the structure as drawn.

Legend:
CYP2C9 = CYP2C9 (Homo sapiens (Human), UniProt P11712); assay: Inhibition of CYP2C9 enzymatic activity in human liver microsomes; assay type: in vitro ADME; details: substrate diclofenac
Experimental: The inhibition of CYP2C9 and CYP2D6 enzymatic activities by the compounds of the present invention was determined by the following test method.
• 1. Human liver microsomes (Corning 452117) • 2. NADPH (Solarbio 705Y021) • 3. Positive substrates diclofenac (Sigma SLBV3438), dextromethorphan (TRC 3-EDO-175-1) and midazolam (Cerilliant FE01161704) • 4. Positive inhibitors sulfaphenazole (D. Ehrenstorfer GmbH 109012), quinidine (TCI WEODL-RE) and ketoconazole (Sigma 100M1091V) • 5. AB Sciex Triple Quad 5500 liquid chromatography-mass spectrometry
1. Preparation of 100 mM phosphate buffered saline (PBS): 7.098 g of Na2HPO4 was weighed, 500 mL of pure water was added and subjected to ultrasonic dissolution to obtain solution A. 3.400 g of KH2PO4 was weighed, 250 mL of pure water was added and subjected to ultrasonic dissolution to obtain solution B. Solution A was placed on a stirrer and solution B was slowly added until pH reaches 7.4 to prepare 100 mM PBS buffer.
2. Preparation of 10 mM NADPH solution with 100 mM PBS buffer. 10 mM stock solution of compounds of the invention was diluted with DMSO to obtain a 200× concentration of compound working solution (6000, 2000, 600, 200, 60, 20, 0 µM). The stock solution of positive inhibitors was diluted with DMSO to obtain a 200× concentration of positive inhibitor working solution (sulfaphenazole, 1000, 300, 100, 30, 10, 3, 0 µM; quinidine/ketoconazole, 100, 30, 10, 3, 1, 0.3, 0 µM). A 200 × concentration of substrate working solution (120 µM of diclofenac, 400 µM of dextromethorphan, and 200 µM of midazolam) was prepared in water, acetonitrile, or acetonitrile/methanol.
3. 2 µl of 20 mg/ml liver microsome solution, 1 µl of substrate working solution, 1 µl of compound working solution and 176 µl of PBS buffer were taken, mixed uniformly, and pre-incubated in a 37° C. water bath for 15 minutes. […]
The IC50 values of the compounds of the present invention against CYP2C9 and CYP2D6 were calculated by Excel XLfit 5.3.1.3.

[1] = Pharmacokinetic evaluation in mice; assay type: in vivo; details: CD-1 mice; for bioavailability: female, mouse, plasma, PO 10 mg/kg vs IV 1 mg/kg
Experimental: Six female CD-1 mice (20-30 g, 4-6 weeks) were randomized into 2 groups, 3 mice/group. Group 1 was given the test compound via tail vein injection at a dose of 1 mg/kg, and the vehicle was 5% DMSO in 10% HP-β-CD in water, and group 2 was given the test compound orally at a dose of 10 mg/kg, and the vehicle was 40% Tetraethylene Glycol (v/v), 7.5% Captisol (w/v) in water. Prior to the experiment, the animals were given food and water as usual. Before administration and 0.083 (only for the vein injection group), 0.25, 0.5, 1, 2, 4, 6, 8 and 24 h after administration, blood was sampled from the veins of the mice in each group. The whole blood sample collected was placed in a K2EDTA anticoagulation tube and centrifuged for 5 min (12,000 rpm, 4° C.) and then the plasma was taken for later detection.
10 µL of the mouse plasma sample was taken and 150 µL of acetonitrile solvent (wherein internal standard compound was contained) was added to precipitate proteins. After the mixture was vortexed for 5 min, centrifugation (14,000 rpm) was performed for 5 min. The supernatant was diluted 2-fold with water containing 0.1% (v/v) FA and injected into the LC-MS/MS system (AB Sciex Triple Quad 6500+) for the quantitative detection. A calibration standard curve was prepared in CD-1 mouse plasma along with quality control samples to determine the plasma concentration. For the 10x diluted samples, 2 µL of the sample was taken and 18 µL of blank plasma was added. After the mixture was vortexed for 0.5 min, 300 µL of acetonitrile solvent (wherein an internal standard compound was contained) was added to precipitate proteins. The other processing steps were identical to those for the samples not diluted.

[2] = Apparent solubility in phosphate buffer at pH 7.4; assay type: physicochemical; details: aqueous buffer, kinetic from dmso stock, phosphate buffer pH 7.4, 25° C.
Experimental: The compounds to be tested were prepared according to the method described. The control drug progesterone was purchased from Sigma. Phosphate buffer with pH 7.4 was prepared in our laboratory. Acetonitrile and methanol were purchased from Fisher. Other reagents were purchased from the market.
10 mM stock solution of substance to be tested and control drug progesterone was prepared with DMSO.
30 µL of 10 mM stock solution of substance to be tested was taken, and added to the corresponding position of the corresponding 96-well plate in the specified order. 970 µL of phosphate buffer (pH 7.4) was added to the corresponding vial in the sample plate. The experiment was performed in parallel duplicate. A stirring rod was added to each vial and a polytetrafluoroethylene/silicone stopper was covered thereon. The sample tray was then placed in an Eppendorf Thermomixer Comfort and shaken at 1100 rpm for 2 hours at 25° C. After 2 hours, the stopper was removed, and the stirring rod was sucked away by a large magnet, then the sample was transferred from the sample plate to the filter plate. A vacuum pump was used to generate negative pressure and the sample was filtered. 5 µL of the filtrate was transferred to a new sample plate, and then 5 µL of DMSO and 490 µL of 50% ACN(IS).H2O (internal standard acetonitrile : water = 1 : 1) were added. Depending on the peak shape, it may be possible to dilute the sample diluent with a certain proportion of 50% ACN(IS).H2O for better peak shape. […]
The loading plate was placed in the loading tray of the autosampler, and the sample was evaluated by liquid chromatography-mass spectrometry analysis.
All calculations are performed via Microsoft Excel. Analysis and quantification of the sample filtrate was accomplished by using the liquid chromatography-mass spectrometry to characterize and quantify the peaks of the standards with known concentrations. The apparent solubility of the compounds of the present invention in phosphate buffer (PH 7.4) was calculated.

Chain of CYP2C9 (P11712 whole entry): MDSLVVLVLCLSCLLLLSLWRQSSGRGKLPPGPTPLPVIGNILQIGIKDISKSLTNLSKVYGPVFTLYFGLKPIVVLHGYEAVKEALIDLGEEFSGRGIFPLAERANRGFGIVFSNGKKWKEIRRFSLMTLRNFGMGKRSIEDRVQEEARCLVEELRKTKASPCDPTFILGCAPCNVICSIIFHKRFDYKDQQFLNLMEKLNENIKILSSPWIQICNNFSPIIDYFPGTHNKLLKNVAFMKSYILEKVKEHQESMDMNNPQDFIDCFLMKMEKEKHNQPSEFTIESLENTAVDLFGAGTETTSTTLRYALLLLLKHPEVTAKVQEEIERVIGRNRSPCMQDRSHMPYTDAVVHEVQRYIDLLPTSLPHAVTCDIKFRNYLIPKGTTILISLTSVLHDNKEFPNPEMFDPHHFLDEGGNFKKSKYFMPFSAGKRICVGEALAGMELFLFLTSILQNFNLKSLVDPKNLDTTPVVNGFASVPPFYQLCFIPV

Structure (SMILES)	IC50 (CYP2C9) [µM]	Drug exposure ([1]; IV 1 mg/kg) [ng·h/mL]	Maximum drug concentration ([1]; IV 1 mg/kg) [ng/mL]	Time of half drug elimination ([1]; IV 1 mg/kg) [h]	Drug exposure ([1]; PO 10 mg/kg) [ng·h/mL]	Maximum drug concentration ([1]; PO 10 mg/kg) [ng/mL]	Time of half drug elimination ([1]; PO 10 mg/kg) [h]	Time to peak drug concentration ([1]; PO 10 mg/kg) [h]	bioavailability [1] [%]	solubility at 2 h [2] [µM]
C[C@@H]1Cc2c([nH]c3ccccc23)C(c2c(F)cc(N[C@H]3CCN(CCCF)C3)cc2F)N1CC(F)(F)F (stereo in doubt) [Example 4, (S)-N-(3,5-difluoro-4-((1S,3R)-3-methyl-2-(2,2,2-trifluoroethyl)-2,3,4,9-tetrahydro-1H-pyridino[3,4-b]indol-1-yl)phenyl)-1-(3-fluoropropyl)pyrrolidin-3-amine]	20	639	78	21	3853	222	19	5	60	< 0.3
C[C@@H]1Cc2c([nH]c3ccccc23)C(c2c(F)cc(N[C@H]3CCN(CCCF)C3)cc2F)N1CC(F)(F)CO (stereo in doubt) [Example 7, 3-((1S,3R)-1-(2,6-difluoro-4-(((S)-1-(3-fluoropropyl)pyrrolidin-3-yl)amino)phenyl)-3-methyl-3,4-dihydro-1H-pyridino [3,4-b]indole-2(9H)-yl)-2,2-difluoropropane-1-ol]	8	879	259	5	5447	555	4	1	62	4 (≈ 2.15 µg/mL)
C[C@@H]1Cc2c([nH]c3ccccc23)[C@@H](c2ccc(N[C@H]3CCN(CCCF)C3)cn2)N1CC(F)(F)F [Example 3, N-((S)-1-(3-fluoropropyl)pyrrolidin-3-yl)-6-((1S,3R)-3-methyl-2-(2,2,2-trifluoroethyl)-2,3,4,9-tetrahydro-1H-pyridino[3,4-b]indol-1-yl)pyridine-3-amine]	> 30	414	98	13	2804	219	9	3	68	92 (≈ 45 µg/mL)
